PubChem BioAssay (NCI)
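Assay format: 96-well plates, 48-hour exposure. TGI denotes the concentration required for complete inhibition of growth.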

What was measured:
Experiment in all cases: growth of human tumour cells (NCI), 48 h
786-0 renal = test system: 786-0 renal
A498 renal = test system: A498 renal
A549 NSCLC = test system: A549 NSCLC
ACHN renal = test system: ACHN renal
BT-549 breast = test system: BT-549 breast
CAKI-1 renal = test system: CAKI-1 renal
CCRF-CEM leukemia = test system: CCRF-CEM leukemia
COLO 205 colon = test system: COLO 205 colon
DU-145 prostate = test system: DU-145 prostate
EKVX NSCLC = test system: EKVX NSCLC
HCC-2998 colon = test system: HCC-2998 colon
HCT-116 colon = test system: HCT-116 colon
HCT-15 colon = test system: HCT-15 colon
HL-60(TB) leukemia = test system: HL-60(TB) leukemia
HOP-62 NSCLC = test system: HOP-62 NSCLC
HOP-92 NSCLC = test system: HOP-92 NSCLC
HS 578T breast = test system: HS 578T breast
HT29 colon = test system: HT29 colon
IGROV1 ovarian = test system: IGROV1 ovarian
K-562 leukemia = test system: K-562 leukemia
KM12 colon = test system: KM12 colon
LOX IMVI melanoma = test system: LOX IMVI melanoma
M14 melanoma = test system: M14 melanoma
MALME-3M melanoma = test system: MALME-3M melanoma
MCF7 breast = test system: MCF7 breast
MDA-MB-231 breast = test system: MDA-MB-231 breast
MDA-MB-435 = test system: MDA-MB-435
MDA-N = test system: MDA-N
MOLT-4 leukemia = test system: MOLT-4 leukemia
NCI-H226 lung = test system: NCI-H226 lung
NCI-H23 lung = test system: NCI-H23 lung
NCI-H460 lung = test system: NCI-H460 lung
NCI-H522 lung = test system: NCI-H522 lung
NCI/ADR-RES ovarian = test system: NCI/ADR-RES ovarian
OVCAR-3 ovarian = test system: OVCAR-3 ovarian
OVCAR-4 ovarian = test system: OVCAR-4 ovarian
OVCAR-5 ovarian = test system: OVCAR-5 ovarian
OVCAR-8 ovarian = test system: OVCAR-8 ovarian
PC-3 prostate = test system: PC-3 prostate
RPMI-8226 leukemia = test system: RPMI-8226 leukemia
RXF 393 renal = test system: RXF 393 renal
SF-268 CNS = test system: SF-268 CNS
SF-295 CNS = test system: SF-295 CNS
SF-539 CNS = test system: SF-539 CNS
SK-MEL-2 melanoma = test system: SK-MEL-2 melanoma
SK-MEL-28 melanoma = test system: SK-MEL-28 melanoma
SK-MEL-5 melanoma = test system: SK-MEL-5 melanoma
SK-OV-3 ovarian = test system: SK-OV-3 ovarian
SN12C renal = test system: SN12C renal
SNB-19 CNS = test system: SNB-19 CNS
SW-620 colon = test system: SW-620 colon
T-47D breast = test system: T-47D breast
TK-10 renal = test system: TK-10 renal
U251 CNS = test system: U251 CNS
UACC-257 melanoma = test system: UACC-257 melanoma
UACC-62 melanoma = test system: UACC-62 melanoma
UO-31 renal = test system: UO-31 renal
SNB-75 CNS = test system: SNB-75 CNS
SR leukemia = test system: SR leukemia

Measured: TGI

NC(N)=NS(=O)(=O)c1ccc(Nc2c3ccccc3nc3c(C(=O)NNCCO)cccc23)cc1
0.422 µM: K-562 leukemia
0.434 µM: IGROV1 ovarian
307 nM: SF-268 CNS
0.912 µM: CAKI-1 renal
0.42 µM: NCI-H226 lung | RPMI-8226 leukemia
462 nM: HCC-2998 colon
756 nM: RXF 393 renal
0.933 µM: HT29 colon
0.303 µM: BT-549 breast
0.354 µM: HCT-116 colon
0.456 µM: M14 melanoma
0.296 µM: T-47D breast
0.241 µM: MCF7 breast
0.269 µM: OVCAR-3 ovarian | U251 CNS
0.351 µM: COLO 205 colon
0.311 µM: SK-MEL-2 melanoma
0.504 µM: MDA-N
0.341 µM: NCI-H460 lung
0.377 µM: SW-620 colon
0.278 µM: SK-MEL-5 melanoma
0.536 µM: HOP-62 NSCLC
0.287 µM: KM12 colon
273 nM: MALME-3M melanoma
0.375 µM: LOX IMVI melanoma
280 nM: NCI-H23 lung | NCI-H522 lung
0.671 µM: HL-60(TB) leukemia
0.731 µM: MDA-MB-231 breast
0.446 µM: MDA-MB-435
not listed: SNB-75 CNS | SR leukemia
> 1 µM: all other assays above

O=C(O)CN1CCNCCNCC1
68.5 µM: HL-60(TB) leukemia
not listed: HCC-2998 colon | MALME-3M melanoma | NCI-H23 lung | NCI-H522 lung | RXF 393 renal | SF-268 CNS | SF-295 CNS
> 100 µM: all other assays above

CC(C)CCNc1ncnc2[nH]ncc12
> 100000 nM: HCC-2998 colon | MALME-3M melanoma | NCI-H23 lung | NCI-H522 lung | RXF 393 renal | SF-268 CNS
not listed: CCRF-CEM leukemia | SF-539 CNS | SR leukemia
> 100 µM: all other assays above
